Measured values taken from publication PMC12323621, “Exploring the antimicrobial activity of pantothenamides against uropathogenic Escherichia coli” (Microbiology Spectrum, 2025).
Read-outs that look alike come from different tables or passages of the source. Blank lines part the entries; values can stand above or below the compound they belong to.

What was measured:
UTI = test system: UTI; parameters: method as in PMID 38376151; details: in vivo ascending UTI prophylaxis model; cited from earlier work
UPEC strain CFT073 [1] = experiment: Antimicrobial susceptibility assay, UPEC grown in MOPS-glycerol; format: cell-based, Escherichia coli; details: for MIC: Escherichia coli; for MIC / MIC MOPS-glycerol: UPEC CFT073 grown in MOPS-glycerol, 24 h, ± standard error; for fold increase in MIC (less potent) compared with 1 / activity against UPEC, highest concentration without activity: MOPS-glycerol
Description: (§1) Unless otherwise noted, all reagents were obtained from commercial sources. BAP, 1, and N5-Pan analogs were synthesized according to previously reported procedures ([31], [53]). Urine was self-collected from adult males and females (not menstruating) between 24 and 57 years old (recruitment was open to donors 18–65 years old), who had not used anti-infectives or cranberry products for at least 7 days prior to collection. The collection protocol was approved by the Johns Hopkins University Institutional Review Boards under IRB study NA_00085130. Informed, written consent was obtained from all participants prior to collection. Urine was collected from at least 7 participants over 14 days, stored at 4°C upon collection, and then pooled, filter-sterilized, and frozen at −20°C. Urine Batch A included five male and three female donors with an average age of 33 years (range: 24–57). Urine Batch B included four male and five female donors with an average age of 26 years (range: 24–43). Samples from two donors (donations made at least 30 days apart) were included in both Batch A and Batch B. Urine Batch C included four male and three female donors with an average age of 27 years (range: 24–36). Urine Batch D included four male and three female donors with an average age of 27 years (range: 25–35). Solid urine agar plates were prepared by supplementing cooled 1.5% (wt/vol) agar with filter-sterilized urine in a 4:1 ratio. Liquid MOPS-glycerol was prepared by adding 10 × 3-(N-morpholino)propanesulfonic acid (MOPS) Buffer (Teknova) to water to a final 1× concentration, 1.32 mM K2HPO4, and 0.4% (vol/vol) glycerol and then filter-sterilizing. Unless otherwise noted, all media were supplemented with freshly prepared 20 µM FeSO4. OD600 analyses were performed on Mettler-Toledo UV5Bio UV/Visible spectrophotometer (Columbus, Ohio, USA). For antimicrobial studies, uropathogenic E. coli strain CFT073 (ATCC: BAA-2503) was provided by Kevin Schwartz from the lab of Rodney Welch. All manipulation of UPEC was conducted in a certified biosafety level 2 (BSL-2) laboratory while using BSL-2-associated safety procedures. Antimicrobial data were collected on a Biotek Epoch 2 microplate reader or a Biotek Synergy Neo 2 microplate reader. For metabolic stability studies, losartan potassium (PHR1602), used as an internal standard, was bought from Millipore Sigma (Burlington, MA). Methanol (A456-4) and acetonitrile (A955-4) were purchased from Fisher Chemical (Pittsburgh, PA). Water (9831-03) was purchased from JT Baker (Philipsburg, NJ). Dimethyl sulfoxide (DMSO)(154938-500mL) was purchased from Sigma Aldrich (St. Louis, MO). Mouse plasma (WT) was purchased from Innovative Research (Novi, MI). Mouse liver microsomes (M1000) were purchased from XenoTech LLC (Kansas City, KS).
(§2) All antimicrobial susceptibility assays were conducted as previously described using an aseptic technique with some modification ([7]). Briefly, 3–5 isolated colonies of CFT073 on LB agar or pooled urine agar were inoculated into 3 mL of liquid MOPS-glycerol medium or pooled urine, respectively, and grown overnight with shaking at 37°C. Saturated cultures were diluted 1:50 in fresh medium and grown to an OD600 of 0.4. These exponential phase cultures were then diluted 1:1,000 into fresh medium to yield the experimental inoculum, which was mixed 1:1 with medium containing 1 or N5-Pan analog at twice the desired final concentration in 96-well plates. The final concentration of bacteria in each well was approximately 10^5 CFU/mL in a final volume of 200 µL. The concentration ranges of compounds evaluated in MOPS-glycerol were: 1 (0–312.5 μM), 2 (0–100 μM), 3 (0–500 μM), 4–5 (0–2,000 μM), 6–7 (0–100 μM), and 8–12 (0-2,000 μM). Analogs 1, 6, and 7 were evaluated over a range of 0–4,000 μM in four batches of pooled human urine. The OD600 was monitored for 24 h (MOPS-glycerol) or 16 h (pooled urine) at 37°C with periodic shaking. […]

E. coli = test system: E. coli; parameters: method as in PMID 29332383; details: cited from earlier work
serum pantetheinases = details: cited from earlier work
[2] = Phase I metabolic stability in mouse liver microsomes; format: in vitro ADME; details: for remaining at 1 h, 1 µM: mouse, liver microsomes, pH 7.4, 1 h, 1 µM compound, 0.2 mg/mL microsomes
Protocol: (§3) Stability studies were conducted in mouse liver microsomes, mouse liver tissue homogenate, and CD1 mouse plasma as previously described with minor modifications ([54][–][56]). Briefly, for Phase I mouse liver microsome stability, reactions were carried out with 200 mM potassium phosphate buffer, pH 7.4, with or without an NADPH-regenerating system (1.3 mM NADPH, 3.3 mM glucose 6-phosphate, 3.3 mM MgCl2, 0.4 U/mL glucose-6-phosphate dehydrogenase, and 50 µM sodium citrate). Reactions, in triplicate, were initiated by the addition of liver microsomes to the incubation mixture (compound final concentration was 1 µM; 0.2 mg/mL microsomes) and incubated at 37°C for the desired incubation time. For liver stability, the tissue homogenate was prepared by washing tissues with diluted 10-fold 0.1 M potassium phosphate buffer and homogenized using a probe sonicator over ice. To evaluate the stability of the drugs over time, each of the crude homogenates was aliquoted to 1 mL and then spiked with a final assay concentration of 10 µM of each drug, followed by incubation in an orbital shaker at 37°C for 1 h (in triplicate). For plasma stability, 1 mL of plasma was spiked with 10 µM of each drug, followed by incubation in an orbital shaker at 37°C for 1 h (in triplicate). Samples from each metabolism study were quenched with 3× volume of acetonitrile containing internal standard (losartan: 0.5 µM) at the desired incubation times. […] Samples were vortex-mixed for 30 s and centrifuged at 10,000 × g for 10 min at 4°C. Compound disappearance over time was monitored using a Dionex ultra-high-performance liquid chromatography system consisting of an analytical pump and an autosampler coupled with Q Exactive Focus orbitrap mass spectrometer (Thermo Fisher Scientific Inc., Waltham MA). […] The mobile phase used was composed of 0.1% formic acid in water and 0.1% formic acid in acetonitrile with gradient elution. The total run time for each analyte was 5 min.
(§4) The mass spectrometer was operated with a HESI ion source in positive ionization mode where compounds were identified in the full scan mode (from m/z 75.00–1125.00) and controlled by the Xcalibur software 4.0.27.13 (Thermo Scientific). Data were acquired using Xcalibur software. Drugs were identified in the full-scan mode (from m/z 75.00 to 1125.00) by comparing t = 0 samples with t = 30 or 60 min samples, and structures were proposed based on the accurate mass information. The percentage of compound remaining for pantothenamides 1, 6, and 7 was determined from the analyte/internal standard (IS) area ratios obtained at t = 30 or 60 min relative to the mean ratios obtained at t = 0 min and calculated using equation 1:
(§5) % Remaining=(Peak area of Analyte/Preak area of ISat t=30 or 60 min/MeanPeak area of Analyte/Peak area of ISat t=0 min)×100

[3] = Stability in mouse liver homogenate; format: in vitro ADME
Protocol: as §3, §4, §5

[4] = Stability in mouse plasma; format: in vitro ADME
Protocol: as §3, §4, §5

UPEC strain CFT073 [5] = experiment: Antimicrobial susceptibility assay, UPEC grown in pooled human urine; format: cell-based, Escherichia coli
Description: as §1, §2

SMILES: CCCCOP(=O)(O)C(C)=O [BAP, butylacetylphosphonate]
protection of mice against UTI (UTI): partially protects

SMILES: CCCCCCCNC(=O)CCNC(=O)[C@H](O)C(C)(C)CO [compound 3]
MIC (UPEC strain CFT073 [1]): 26 µM
fold increase in MIC (less potent) compared with 1 (UPEC strain CFT073 [1]): ~ 10 fold
MIC MOPS-glycerol (UPEC strain CFT073 [1]): 26 ± 5 µM

SMILES: CCCCCN(C)C(=O)CCNC(=O)[C@H](O)C(C)(C)CO [compound 4, N-methyl N5-Pan]
MIC (UPEC strain CFT073 [1]): > 2000 µM
activity against UPEC, highest concentration without activity (UPEC strain CFT073 [1]): > 2 mM

SMILES: CCCCCCCN(C)C(=O)CCNC(=O)[C@H](O)C(C)(C)CO [compound 5, N-methyl N7-Pan]
activity against E. coli (E. coli): inactive
MIC (UPEC strain CFT073 [1]): > 2000 µM
activity against UPEC, highest concentration without activity (UPEC strain CFT073 [1]): similarly inactive
pantetheinase resistance (serum pantetheinases): pantetheinase-resistant

SMILES: CCCCCC(=O)NCCNC(=O)[C@H](O)C(C)(C)CO [compound 7]
remaining at 1 h, 1 µM ([2]; with NADPH, read-out: % remaining in mouse liver microsomes, presence of NADPH): 87%
remaining at 1 h, 1 µM ([2]; without NADPH, read-out: % remaining in mouse liver microsomes, absence of NADPH): 87%
stability in mouse liver microsomes ([2]; n = 3): good stability
% remaining in mouse liver homogenate ([3]; 1 h, 10% wt/vol homogenate, 10 µM compound, 37°C): no degradation
stability in mouse liver homogenate ([3]; n = 3): good stability
remaining at 1 h, 10 µM ([4]; CD1, mouse, plasma, 1 h, 10 µM compound, 37°C): 93%
stability in mouse plasma ([4]; n = 3): good stability
MIC (UPEC strain CFT073 [1]): 12.5 µM
MIC MOPS-glycerol (UPEC strain CFT073 [1]): 12.5 ± 0.00 µM
MIC (UPEC strain CFT073 [5]; Escherichia coli, UPEC CFT073, all urine batches A-D, read-out: MIC across four batches of pooled urine): ≥ 4000 µM
MIC (UPEC strain CFT073 [5]; UPEC CFT073, urine batch A, read-out: MIC in pooled human urine, urine batch A): > 4000 µM
MIC (UPEC strain CFT073 [5]; UPEC CFT073, urine batch B, read-out: MIC in pooled human urine, urine batch B): 4000 µM
stability in the presence of serum pantetheinases (serum pantetheinases): stable

Continued, values first:

MIC (UPEC strain CFT073 [1]): 4 µM
MIC MOPS-glycerol (UPEC strain CFT073 [1]): 4 ± 1 µM
SMILES: CCCCNC(=O)CCNC(=O)[C@H](O)C(C)(C)CO [compound 2]

MIC (UPEC strain CFT073 [1]): 68 µM
fold increase in MIC (less potent) compared with 1 (UPEC strain CFT073 [1]): ~ 28 fold
MIC MOPS-glycerol (UPEC strain CFT073 [1]): 68 ± 32 µM
SMILES: CC(C)(CO)[C@@H](O)C(=O)NCCC(=O)NCc1ccccn1 [compound 8]

MIC (UPEC strain CFT073 [1]): 2000 µM
SMILES: CC(C)(CO)[C@@H](O)C(=O)NCCC(=O)NCc1cccnc1 [compound 9]

MIC (UPEC strain CFT073 [1]): > 2000 µM
SMILES: CC(C)(CO)[C@@H](O)C(=O)NCCC(=O)NCc1ccncc1 [compound 10]

MIC (UPEC strain CFT073 [1]): > 2000 µM
SMILES: CC(NC(=O)CCNC(=O)[C@H](O)C(C)(C)CO)c1cccnc1 (some centres unmarked) [compound 11]

MIC (UPEC strain CFT073 [1]): > 2000 µM
SMILES: CN(Cc1cccnc1)C(=O)CCNC(=O)[C@H](O)C(C)(C)CO [compound 12]
